Key:
[1] = in vivo; cited from earlier work
[2] = test system: patients with childhood ALL; details: cited from earlier work; for central nervous system (CNS) relapse: COALL-92, maintenance, p = 0.053
childhood ALL [3] = details: UK MRC ALL 97, cited from earlier work
childhood ALL [4] = details: CCG-1952, cited from earlier work; for event-free survival: at 5 years, p = 0.02
[5] = test system: TPMT wildtype lymphoblastoid cells; test: cells; details: Homo sapiens, Lymphoblastoid cell, 72 h, read-out: Mean percentage viable cells after 72 h

SMILES | half lives [1] | central nervous system (CNS) relapse [2] [%] | Treatment interruptions ([2]; COALL-92) | patients who developed non-fatal hepatic toxicity with features of veno-occlusive disease (VOD) (childhood ALL [3]) | event-free survival (childhood ALL [4]) [%] | viability at 0.125 µM [5] [%] | viability at 0.25 µM [5] [%] | viability at 0.5 µM [5] [%] | viability at 1 µM [5] [%] | Treatment interruptions, higher rate compared to the 6-mercaptopurine arm ([2]; COALL-92) [fold] | incidence of thrombocytopenia (< 100 x 10^9/l) without evidence of leukocytopenia (<1 x 10^9/l), higher compared to the 6-mercaptopurine arm ([2]; COALL-92) [fold] | isolated disease recurrence in the CNS, odds ratio (childhood ALL [3]; vs 6-mercaptopurine, 95% confidence interval 0.30 - 0.92) | risk of death in remission, odds ratio (childhood ALL [3]; vs 6-mercaptopurine, 95% confidence interval 1.20 - 4.14, mainly due to infections) | patients with hepatic VOD-like symptoms (childhood ALL [4]) | viability at 0.0625 µM [5] [%]
Sc1ncnc2nc[nH]c12 [MP, 6-mercaptopurine] | approximately 21 minutes | 0.8 | 2.8 % of maintenance treatment weeks | less than 2% | 77.1 | 89.3 | 84.7 | 79.8 | 73.1 |  |  |  |  |  | 
Nc1nc2nc[nH]c2c(=S)[nH]1 [TG, 6-thioguanine] | ~90 min | 3.4 | 4.7 % of maintenance treatment weeks | 11% | 85.1 | 75.9 | 71.3 |  |  | 1.7 | 7.5 | 0.53 | 2.22 | approximately 20% | 81.2

— EP2098236A1, “Cytostatic compositions” (Medizinische Hochschule Hannover, priority 2008, dated 2009)
